Series [1] addresses Cholinesterase (Equus caballus) (UniProt P81908). The series can be described thus: Inhibition of equine serum BChE using butyrylthiocholine iodide as substrate at 10^-3 M preincubated for 15 mins followed by substrate addition and measured for 5 mins by Ellmans method. (In general: Ellman's reagent forms a yellow product with free thiols.)
Series [2] has the same target. The series can be described thus: Inhibition of equine serum BChE using butyrylthiocholine iodide as substrate at 10^-4 M preincubated for 15 mins followed by substrate addition and measured for 5 mins by Ellmans method.
Series [3] addresses Acetylcholinesterase (Electrophorus electricus, UniProt O42275). The series can be described thus: Inhibition of electric eel AChE using acetylthiocholine iodide as substrate preincubated for 15 mins followed by substrate addition and measured for 5 mins by Ellmans method.
Series [4] in a line: Cytotoxicity against mouse NIH/3T3 cells after 24 hrs by MTT assay. Format: toxicity, NIH3T3.
Series [5] is described as follows: Selectivity index, ratio of IC50 for mouse NIH/3T3 cells to IC50 for electric eel AChE.

Chain of Cholinesterase (Equus caballus) (P81908 whole entry): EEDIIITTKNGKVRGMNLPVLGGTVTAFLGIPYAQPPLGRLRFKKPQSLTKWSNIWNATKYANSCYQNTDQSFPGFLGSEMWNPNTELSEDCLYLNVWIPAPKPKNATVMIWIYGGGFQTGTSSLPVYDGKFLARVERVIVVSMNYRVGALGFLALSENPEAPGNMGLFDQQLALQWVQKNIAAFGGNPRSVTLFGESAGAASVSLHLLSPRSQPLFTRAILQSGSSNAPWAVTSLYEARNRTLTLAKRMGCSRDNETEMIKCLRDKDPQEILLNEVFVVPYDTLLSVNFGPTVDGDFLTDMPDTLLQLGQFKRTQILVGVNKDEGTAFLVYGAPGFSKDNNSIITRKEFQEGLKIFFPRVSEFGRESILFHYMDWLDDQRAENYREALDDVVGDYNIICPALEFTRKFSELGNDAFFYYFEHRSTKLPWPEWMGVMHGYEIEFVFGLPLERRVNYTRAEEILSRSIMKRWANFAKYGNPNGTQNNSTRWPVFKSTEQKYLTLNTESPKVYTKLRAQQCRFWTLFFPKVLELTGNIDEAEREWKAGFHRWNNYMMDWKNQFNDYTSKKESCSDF
Chain of Acetylcholinesterase (O42275 whole entry): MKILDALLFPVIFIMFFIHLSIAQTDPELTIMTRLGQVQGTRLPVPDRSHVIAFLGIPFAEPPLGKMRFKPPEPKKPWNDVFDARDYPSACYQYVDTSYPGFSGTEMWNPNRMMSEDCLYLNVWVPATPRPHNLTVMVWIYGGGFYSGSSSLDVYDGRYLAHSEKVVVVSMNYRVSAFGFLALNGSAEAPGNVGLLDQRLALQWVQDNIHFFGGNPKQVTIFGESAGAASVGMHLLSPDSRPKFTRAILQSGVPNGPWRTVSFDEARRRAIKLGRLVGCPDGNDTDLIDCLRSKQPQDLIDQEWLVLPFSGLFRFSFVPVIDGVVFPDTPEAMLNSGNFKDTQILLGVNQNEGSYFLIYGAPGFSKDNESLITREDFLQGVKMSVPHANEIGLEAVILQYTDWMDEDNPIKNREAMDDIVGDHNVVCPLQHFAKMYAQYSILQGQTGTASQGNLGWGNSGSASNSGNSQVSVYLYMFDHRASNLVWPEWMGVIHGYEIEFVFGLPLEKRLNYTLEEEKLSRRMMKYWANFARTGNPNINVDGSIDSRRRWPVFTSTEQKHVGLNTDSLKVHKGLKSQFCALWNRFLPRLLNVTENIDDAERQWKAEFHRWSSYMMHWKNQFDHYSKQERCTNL

As usually defined, the inhibition is the drop in the measured response relative to a control, in per cent. A lower inhibition goes with little suppression. Turning to `COc1ccc2c(c1)C(=O)/C(=C\c1ccc(N3CCN(CCO)CC3)cc1)C2`, the inhibition was 3.45% in series [1] and 1.25% in series [2].
The matching figures for `COc1ccc2c(c1)C(=O)/C(=C\c1ccc(N3CCN(CCN(C)C)CC3)cc1)C2`: 17.2% and 10.6%.
Turning to `COc1ccc2c(c1)C(=O)/C(=C\c1ccc(N3CCN(c4ccccc4)CC3)cc1)C2`, the inhibition in series [1] is 1.73%; in series [2], 1.06%.
The matching figures for `COc1cc2c(cc1OC)C(=O)C(CC1CCN(CC(=O)Nc3ccc(F)cc3)CC1)C2` (configuration not stated): 4.75% and 1.99%.
The like results for `CCN1CCN(c2ccc(/C=C3/Cc4cc(OC)c(OC)cc4C3=O)cc2)CC1` were, in that order, 16.9% and 8.56%.
Consider `COc1ccc2nc(NC(=O)CN3CCC(CC4Cc5cc(OC)c(OC)cc5C4=O)CC3)sc2c1` (configuration not stated), for which the inhibition stood at 5.33% in series [1] and 3.19% in series [2].
As for `COc1cc2c(cc1OC)C(=O)C(CC1CCN(CC(=O)Nc3ccc(C)cc3)CC1)C2` (configuration not stated), the inhibition in series [1] stood at 5.89%; in series [2] it was 3.2%.
In the case of `COc1ccc2c(c1)C/C(=C/c1ccc(N3CCCC3)cc1)C2=O`, the figures for the inhibition in series [1] and in series [2] were 3.08% and 1.25%, respectively.
For `COc1cc2c(cc1OC)C(=O)C(CC1CCN(CC(=O)Nc3nc4cc(OC)c(OC)cc4s3)CC1)C2` (configuration not stated), the results for the inhibition in series [1] and in series [2] were 3.77% and 2.05%, respectively.
The like results for `CCN(CC)c1ccc(/C=C2/Cc3ccc(OC)cc3C2=O)cc1` were, in that order, 2.8% and 1.65%.
On to `COc1ccc(NC(=O)CN2CCC(CC3Cc4cc(OC)c(OC)cc4C3=O)CC2)cc1OC` (configuration not stated), for which the inhibition in series [1] was 5.85%; in series [2], 1.29%.
Regarding `COc1ccc2c(c1)C/C(=C/c1ccc(N3CCN(c4ccccc4)CC3)cc1)C2=O`, the inhibition is 5.2% in series [1] and 2.38% in series [2].
As a reminder, the IC50 is the concentration that inhibits the measured activity by half. As for `COc1cc2c(cc1OC)C(=O)/C(=C\c1ccc(N3CCN(CCCN(C)C)CC3)cc1)C2`, in series [3], the IC50 amounted to 4.89 µM. Also, the inhibition in series [1] amounted to 18.7%; in series [2], 13.9%. Besides, the IC50 at 24 h in series [4] turned out to be 78 µM.
Take `COc1cc2c(cc1OC)C(=O)/C(=C\c1ccc(N3CCCC3)cc1)C2`: the inhibition in series [1] was 4.98%; in series [2] it was 2.77%.
Regarding `CCN(CC)c1ccc(/C=C2/Cc3cc(OC)c(OC)cc3C2=O)cc1`, the values for the inhibition in series [1] and in series [2] were 3.76% and 1.96%, respectively.
The like results for `COc1ccc2c(c1)C/C(=C/c1ccc(N3CCN(CCN(C)C)CC3)cc1)C2=O` were, in that order, 15.2% and 9.56%.
The matching figures for `COc1cc2c(cc1OC)C(=O)C(CC1CCN(CC(=O)Nc3nc4ccccc4s3)CC1)C2` (configuration not stated): 5.23% and 2.31%.
The like results for `COc1cc2c(cc1OC)C(=O)C(CC1CCN(CC(=O)Nc3nc4ccc(F)cc4s3)CC1)C2` (configuration not stated) were, in that order, 4.89% and 3.1%.
Turning to `COc1cc2c(cc1OC)C(=O)/C(=C\c1ccc(N3CCN(C)CC3)cc1)C2`, the inhibition was found to be 19.2% in series [1] and 8.55% in series [2].
For the compound `COc1cc2c(cc1OC)C(=O)C(CC1CCN(CC(=O)Nc3ccccc3)CC1)C2` (configuration not stated), the results for the inhibition in series [1] and in series [2] were 5% and 2.58%, respectively.
The like results for `CCN1CCN(c2ccc(/C=C3/Cc4cc(OC)ccc4C3=O)cc2)CC1` were, in that order, 15.1% and 8.77%.
Turning to `COc1ccc(NC(=O)CN2CCC(CC3Cc4cc(OC)c(OC)cc4C3=O)CC2)cc1` (configuration not stated), the inhibition was 4.28% in series [1] and 1.33% in series [2].
With `COc1cc2c(cc1OC)C(=O)/C(=C\c1ccc(N3CCN(c4ccccc4)CC3)cc1)C2`, the inhibition worked out at 3.22% in series [1] and 1.08% in series [2].
As to `COc1cc2c(cc1OC)C(=O)/C(=C\c1ccc(N3CCN(CCO)CC3)cc1)C2`, the inhibition stood at 18.2% in series [1] and 7.55% in series [2].
The like results for `COc1cc2c(cc1OC)C(=O)C(CC1CCN(CC(=O)Nc3ccc(Cl)cc3)CC1)C2` (configuration not stated) were, in that order, 5.39% and 2.77%.
For the compound `COc1ccc2c(c1)C/C(=C/c1ccc(N3CCN(CCO)CC3)cc1)C2=O`, the inhibition in series [1] turned out to be 7.63%; in series [2], 5.91%.
`COc1cc2c(cc1OC)C(=O)/C(=C\c1ccc(N3CCN(CCN(C)C)CC3)cc1)C2` showed an IC50 in series [3] of 6.38 µM. The inhibition in series [1] came out at 17%; in series [2], 12.1%. Also, the IC50 at 24 h in series [4] was determined as 320 µM. In addition, the “Ratio IC50” value in series [5] is recorded as 50.
For the compound `COc1cc2c(cc1OC)C(=O)C(CC1CCN(CC(=O)Nc3nc4ccc(Cl)cc4s3)CC1)C2` (configuration not stated), the inhibition in series [1] was determined as 6.21%; in series [2] it was 3.09%.
Turning to `COc1ccc2c(c1)C(=O)/C(=C\c1ccc(N3CCCC3)cc1)C2`, the inhibition in series [1] is 5.7%; in series [2], 3.18%.
As to `COc1cc2c(cc1OC)C(=O)C(CC1CCN(CC(=O)Nc3nc4ccc(C)cc4s3)CC1)C2` (configuration not stated), the inhibition was 4.29% in series [1] and 2.08% in series [2].
The matching figures for `CCN(CC)c1ccc(/C=C2/Cc3cc(OC)ccc3C2=O)cc1`: 10.3% and 5.27%.
With `COc1ccc2c(c1)C(=O)/C(=C\c1ccc(N3CCN(C)CC3)cc1)C2`, the inhibition in series [1] is 14.7%; in series [2], 9.63%.
Regarding `COc1ccc2c(c1)C/C(=C/c1ccc(N3CCN(C)CC3)cc1)C2=O`, the inhibition in series [1] was found to be 12.9%; in series [2], 7.56%.
On to `COc1ccc2c(c1)C(=O)/C(=C\c1ccc(N3CCN(CCCN(C)C)CC3)cc1)C2`, for which the IC50 in series [3] worked out at 6.06 µM. Moreover, the inhibition in series [1] worked out at 16.1%; in series [2] it was 10.1%. Further, in series [4], the IC50 at 24 h was 78 µM. For the same compound, the “Ratio IC50” value in series [5] is listed as 13.
In the case of `CCN1CCN(c2ccc(/C=C3/Cc4ccc(OC)cc4C3=O)cc2)CC1`, the inhibition in series [1] was 5.05%; in series [2], 4.2%.
`COc1cc2c(cc1OC)C(=O)C(CC1CCN(CC(=O)Nc3nc4ccc([N+](=O)[O-])cc4s3)CC1)C2` (configuration not stated): the inhibition was found to be 4.18% in series [1] and 1.13% in series [2].
As for `COc1cc2c(cc1OC)C(=O)C(CC1CCN(CC(=O)Nc3ccc([N+](=O)[O-])cc3)CC1)C2` (configuration not stated), the results for the inhibition in series [1] and in series [2] were 4.88% and 2.69%, respectively.
In series [3], `COc1ccc2c(c1)C/C(=C/c1ccc(N3CCN(CCCN(C)C)CC3)cc1)C2=O` gave an IC50 of 8.54 µM. Moreover, the inhibition was 16% in series [1] and 11.3% in series [2]. For the same compound, it took 230 µM to reach half-maximal inhibition in series [4] (IC50 at 24 h). For the same compound, the “Ratio IC50” value in series [5] is listed as 27.

The values above are taken from ChEMBL document CHEMBL3875179 (Eur J Med Chem, 2016).
